Test results published in US9981940B2, “Aryl sulfide derivatives and aryl sulfoxide derivatives as acaricides and insecticides” (BAYER CROPSCIENCE AKTIENGESELLSCHAFT, priority 2013, dated 2018).

Key:
[1] = log P by HPLC (OECD Guideline 117), method [a] acidic range; assay type: physicochemical; conditions: for logP[a]: HPLC, method [a] acidic range; for chromatographic logP: reversed-phase C18 HPLC column, acidic range
Description: (§1) The log P values were determined analogously to OECD Guideline 117 (EC Directive 92/69/EEC) by HPLC (high-performance liquid chromatography) using reversed-phase columns (C 18), by the following methods:
[a] The LC-MS determination in the acidic range is effected at pH 2.7 with 0.1% aqueous formic acid and acetonitrile (contains 0.1% formic acid) as eluents; linear gradient from 10% acetonitrile to 95% acetonitrile.

[2] = log P by HPLC (OECD Guideline 117), method [b] neutral range; assay type: physicochemical; conditions: HPLC; for logP[b]: method [b] neutral range; for chromatographic logP: reversed-phase C18 HPLC column, neutral range, pH 7.8
Description: as §1
[b] The LC-MS determination in the neutral range is effected at pH 7.8 with 0.001 molar aqueous ammonium hydrogencarbonate solution and acetonitrile as eluents; linear gradient from 10% acetonitrile to 95% acetonitrile.

Tetranychus urticae = Tetranychus urticae spray test, OP-resistant (TETRUR); assay type: in vivo; conditions: application rate of 500 g/ha, after 6 days; for pest or weed control at 500 g/ha: Tetranychus urticae, 144 h, read-out: efficacy
Summary of the method: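 Mortality as % efficacy (0% = no mites killed) read 6 days after spraying. Formulation: active ingredient in acetone/dimethylformamide plus emulsifier, diluted with emulsifier-containing water, applied to Phaseolus vulgaris leaf discs carrying every life stage of OP-resistant spider mites.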

[3] = pH 2.7, HPLC method [a], read-out: logP[a]
[4] = pH 2.7, HPLC, pH 2.7, read-out: log P[a]

Row | logP[a] [1] | logP[b] [2] | chromatographic logP [1, 3] | chromatographic logP [1, 4] | chromatographic logP [2] | Structure (SMILES) | efficacy (Tetranychus urticae) [%] | pest or weed control at 500 g/ha (Tetranychus urticae) [%]
1 | 4.00 | 3.94 | – | – | – | CC=Cc1nn(-c2cc(SCC(F)(F)F)c(C)cc2F)c(=S)n1C1CC1 [Example 501] | 90 | –
2 | 2.52 | 2.47 | – | – | – | CCCOc1nn(-c2cc([S+]([O-])CC(F)(F)F)c(C)cc2F)c(=O)n1C (stereo not shown) [Example 132] | 100 | –
3 | 2.82 | 2.79 | – | – | – | Cc1cc(F)c(-n2nc(OC(C)C)n(C3CC3)c2=O)cc1[S+]([O-])CC(F)(F)F (stereo not shown) [Example 100] | 100 | –
4 | 2.17 | 2.12 | – | – | – | Cc1cc(F)c(-n2nc(N(C)C)n(C3CC3)c2=O)cc1[S+]([O-])CC(F)(F)F (racemic) [Example 194] | 100 | –
5 | 3.33 | 3.27 | – | – | – | CCOCc1nn(-c2cc(SCC(F)(F)F)c(C)cc2F)c(=O)n1C1CC1 [Example 73] | 90 | –
6 | 4.78 | 4.66 | – | – | – | Cc1cc(F)c(-n2nc(C(F)(F)F)n(C(C)(C)C)c2=O)cc1SCC(F)(F)F [Example 67] | 90 | –
7 | 2.95 | 2.97 | – | – | – | Cc1cc(F)c(-n2nc(C(C)(C)C)n(C3CC3)c2=O)cc1[S+]([O-])CC(F)(F)F (racemic) [Example 64] | 100 | –
8 | 2.73 | 2.69 | – | – | – | Cc1cc(F)c(-n2nc(SCC(F)F)n(C3CC3)c2=O)cc1[S+]([O-])CC(F)(F)F (stereo not shown) [Example 256] | 90 | –
9 | – | – | 1.69 | 1.69 | 1.65 | CC[S+]([O-])c1nn(-c2cc([S+]([O-])CC(F)(F)F)c(C)cc2F)c(=O)n1C (stereo not shown) [Example 244, 5-(Ethylsulphinyl)-2-{2-fluoro-4-methyl-5-[(2,2,2-trifluoroethyl)sulphinyl]phenyl}-4-methyl-2,4-dihydro-3H-1,2,4-triazol-3-one] | – | 100
10 | 3.99 | 4.03 | – | – | – | CCSc1nn(-c2cc(SCC(F)(F)F)c(C)cc2F)c(=O)n1C1CC1 [Example 261] | 100 | –
11 | 4.35 | 4.29 | – | – | – | Cc1cc(F)c(-n2nc(-c3ccccc3)oc2=O)cc1SCC(F)(F)F [Example 457] | 90 | –
12 | 3.76 | 3.68 | – | – | – | Cc1ccc(-n2nc(-n3nc(Oc4ccccc4)n(C)c3=O)n(C)c2=O)cc1SCC(F)(F)F [Example 192] | 90 | –
13 | 3.91 | 3.50 | – | – | – | Cc1cc(F)c(N2C(=O)C=C(Br)C2=O)cc1SCC(F)(F)F [Example 337] | 90 | –
14 | 3.05 | 2.98 | – | – | – | CCC[S+]([O-])c1nn(-c2cc(SCC(F)(F)F)c(C)cc2F)c(=O)n1C1CC1 (stereo not shown) [Example 236] | 90 | –
15 | – | – | 2.7 | 2.7 | 2.77 | Cc1cc(F)c(-n2nc(S(C)(=O)=O)n(C)c2=O)cc1SCC(F)(F)F [Example 420, 2-{2-Fluoro-4-methyl-5-[(2,2,2-trifluoroethyl)sulphanyl]phenyl}-4-methyl-5-(methylsulphonyl)-2,4-dihydro-3H-1,2,4-triazol-3-one] | – | 90
16 | 2.84 | 2.81 | – | – | – | Cc1cc(F)c(-n2nc(N(C)C)n(C)c2=O)cc1SCC(F)(F)F [Example 190] | 90 | –
17 | 3.22 | 3.17 | – | – | – | CCN(CC)c1nn(-c2cc(SCC(F)(F)F)c(C)cc2F)c(=O)n1N [Example 222] | 90 | –
18 | 2.48 | 2.44 | – | – | – | Cc1cc(F)c(-n2nc(OC(C)C)n(C)c2=O)cc1[S+]([O-])CC(F)(F)F (stereo not shown) [Example 166] | 90 | –
19 | 3.17 | 3.14 | – | – | – | Cc1cc(F)c(-n2nc(C)n(N(C)C)c2=O)cc1SCC(F)(F)F [Example 201] | 100 | –
20 | 4.12 | 4.03 | – | – | – | Cc1cc(F)c(-n2nc(SCc3ccccc3)n(C)c2=O)cc1SCC(F)(F)F [Example 286] | 100 | –
21 | 3.21 | 3.15 | – | – | – | Cc1cc(F)c(-n2nc(OCC(C)(C)C)n(C)c2=O)cc1[S+]([O-])CC(F)(F)F (stereo not shown) [Example 165] | 100 | –
22 | 4.1 | 4.02 | – | – | – | Cc1cc(F)c(-n2nc(C(C)C)n(C3CC3)c2=S)cc1SCC(F)(F)F [Example 494] | 100 | –

Row | logP[a] [1] | logP[b] [2] | chromatographic logP [1, 3] | chromatographic logP [1, 4] | chromatographic logP [2] | Structure (SMILES) | efficacy (Tetranychus urticae) [%] | pest or weed control at 500 g/ha (Tetranychus urticae) [%]
23 | 3.89 | 3.84 | – | – | – | Cc1cc(F)c(-n2nc(SCC(F)(F)F)n(C3CC3)c2=O)cc1SCC(F)(F)F [Example 254] | 90 | –
24 | 3.66 | 3.58 | – | – | – | Cc1cc(F)c(-n2nc(OCC3CC3)n(C)c2=O)cc1SCC(F)(F)F [Example 143] | 90 | –
25 | 4.77 | 4.71 | – | – | – | Cc1cc(F)c(-n2nc(OCC(C)(C)C)n(C3CC3)c2=O)cc1SCC(F)(F)F [Example 386] | 100 | –
26 | 2.32 | 2.26 | – | – | – | C=CCn1c([S+]([O-])C(C)C)nn(-c2cc([S+]([O-])CC(F)(F)F)c(C)cc2F)c1=O (stereo not shown) [Example 249] | 90 | –
27 | 3.61 | 3.53 | – | – | – | Cc1cc(F)c(-n2nc(OC(C)C)n(C)c2=O)cc1SCC(F)(F)F [Example 151] | 100 | –
28 | – | – | 4.68 | 4.68 | 4.57 | Cc1cc(F)c(-n2nc(C3CCCC3)n(C3CC3)c2=S)cc1SCC(F)(F)F [Example 497, 5-Cyclopentyl-4-cyclopropyl-2-{2-fluoro-4-methyl-5-[(2,2,2-trifluoroethyl)sulphanyl]-phenyl}-2,4-dihydro-3H-1,2,4-triazole-3-thione] | – | 90
29 | 3.61 | 3.54 | – | – | – | CCCCn1c(C(F)(F)F)nn(-c2cc([S+]([O-])CC(F)(F)F)c(C)cc2F)c1=O (stereo not shown) [Example 365] | 100 | –
30 | 2.58 | 2.55 | – | – | – | Cc1cc(F)c(-n2nc(C3CC3)n(C(C)C)c2=O)cc1[S+]([O-])CC(F)(F)F (racemic) [Example 353] | 100 | –
31 | 2.25 | 2.21 | – | – | – | Cc1cc(F)c(-n2nc([S+](C)[O-])n(C)c2=O)cc1SCC(F)(F)F (stereo not shown) [Example 232] | 90 | –
32 | 2.57 | 2.53 | – | – | – | COc1nn(-c2cc([S+]([O-])CC(F)(F)F)c(Br)cc2F)c(=O)n1C1CC1 (stereo not shown) [Example 172] | 100 | –
33 | 2.14 | 2.08 | – | – | – | CCC[S+]([O-])c1nn(-c2cc([S+]([O-])CC(F)(F)F)c(C)cc2F)c(=O)n1C1CC1 (stereo not shown) [Example 237] | 100 | –
34 | – | – | 2.6 | 2.6 | 2.59 | Cc1cc(F)c(-n2nc(C3CC3)n(N(C)C)c2=O)cc1[S+]([O-])CC(F)(F)F (stereo not shown) [Example 197, 5-Cyclopropyl-4-(dimethylamino)-2-{2-fluoro-4-methyl-5-[(2,2,2-trifluoroethyl)sulphinyl]phenyl}-2,4-dihydro-3H-1,2,4-triazol-3-one] | – | 100
35 | 3.99 | 3.90 | – | – | – | Cc1cc(F)c(-n2nc(OCC3CC3)n(C3CC3)c2=O)cc1SCC(F)(F)F [Example 134] | 90 | –
36 | 3.24 | 3.19 | – | – | – | Cc1cc(F)c(-n2nc(OCc3ccccc3)n(C3CC3)c2=O)cc1[S+]([O-])CC(F)(F)F (stereo not shown) [Example 414] | 100 | –
37 | 3.32 | 3.27 | – | – | – | COc1nn(-c2cc(SCC(F)(F)F)c(Cl)cc2F)c(=O)n1C1CC1 [Example 114] | 100 | –
38 | 2.81 | 2.76 | – | – | – | CCSc1nn(-c2cc([S+]([O-])CC(F)(F)F)c(C)cc2F)c(=O)n1C1CC1 (stereo not shown) [Example 262] | 100 | –
39 | 4.14 | 4.07 | – | – | – | CCn1c(C(F)(F)F)nn(-c2cc(SCC(F)(F)F)c(C)cc2Cl)c1=O [Example 50] | 100 | –
40 | 2.45 | 2.40 | – | – | – | Cc1cc(F)c(-n2nc([S+](C)[O-])n(C3CC3)c2=O)cc1SCC(F)(F)F (stereo not shown) [Example 230] | 100 | –
41 | 3.79 | 3.71 | – | – | – | Cc1cc(Cl)c(-n2nc(OCC(C)(C)C)n(C3CC3)c2=O)cc1[S+]([O-])CC(F)(F)F (stereo not shown) [Example 404] | 100 | –
42 | 2.88 | 2.81 | – | – | – | COC1=CC(=O)N(c2cc(SCC(F)(F)F)c(C)cc2C)C1 [Example 312] | 90 | –
43 | 2.46 | 2.43 | – | – | – | Cc1cc(F)c(N2CC(OC(C)C)=CC2=O)cc1[S+]([O-])CC(F)(F)F (stereo not shown) [Example 325] | 100 | –

Row | Structure (SMILES) | logP[a] [1] | logP[b] [2] | chromatographic logP [1, 3] | chromatographic logP [1, 4] | chromatographic logP [2] | efficacy (Tetranychus urticae) [%] | pest or weed control at 500 g/ha (Tetranychus urticae) [%]
44 | COc1nn(-c2cc([S+]([O-])CC(F)(F)F)c(C)cc2F)c(=O)n1C1CC1 (single isomer, unassigned) [Example 379] | 2.14 | 2.09 | – | – | – | 90 | –
